Assay results published in patent US8673894B2 (Hoffmann-La Roche Inc., priority 2010, dated 2014).
Counter-ions that a name gives are not always drawn.

Tests used:
[1] = target: T1, endogenous cellular BACE2 (Rattus norvegicus, UniProt Q6IE75); assay: Assay for BACE inhibition by measuring cellular TMEM27 cleavage; type: cell-based; details: INS-TMEM27 (INS1e-derived) cells, shed human TMEM27 in supernatant by ELISA
T1 construct: endogenous cellular BACE2 in the Ins1e rat cell line; endogenous in cells; host or cells: INS-TMEM27 (INS1e-derived rat insulinoma cell line with doxycycline-inducible full-length human TMEM27)
T1 sequence (Q6IE75 63-514): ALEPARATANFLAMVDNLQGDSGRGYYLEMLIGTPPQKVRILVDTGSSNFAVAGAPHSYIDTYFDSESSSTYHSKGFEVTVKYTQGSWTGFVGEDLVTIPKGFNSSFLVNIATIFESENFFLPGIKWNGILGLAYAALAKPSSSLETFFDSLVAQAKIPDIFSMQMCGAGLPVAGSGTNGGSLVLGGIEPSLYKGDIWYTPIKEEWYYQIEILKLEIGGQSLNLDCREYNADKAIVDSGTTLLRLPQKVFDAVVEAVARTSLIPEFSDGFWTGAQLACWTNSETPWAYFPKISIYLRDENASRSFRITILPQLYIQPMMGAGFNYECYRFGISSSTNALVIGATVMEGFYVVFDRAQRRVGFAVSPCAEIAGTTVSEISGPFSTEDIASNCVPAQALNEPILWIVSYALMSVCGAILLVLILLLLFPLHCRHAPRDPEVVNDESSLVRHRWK
From the text: Assay for BACE Inhibition by Measuring Cellular TMEM27 Cleavage:
The assay uses the principle of inhibition of human TMEM27 cleavage by endogenous cellular BACE2 in the Ins1e rat cell line and shedding from the cell surface into the culture medium, followed by detection in an ELISA assay. Inhibition of BACE2 prevents the cleavage and shedding in a dose-dependent manner.
The stable cell line “INS-TMEM27” represents an INS1e-derived cell line with inducible expression (using the TetOn system) of full-length hTMEM27 in a doxycycline-dependent manner. The cells are cultured throughout the experiment in RPMI1640+ Glutamax (Invitrogen) Penicillin/Streptomycin, 10% Fetal bovine serum, […], […], 100 micrograms/ml G418 and 100 microgram/ml hygromycin and are grown inadherent culture at 37° C. in a standard CO2 cell culture incubator.
INS-TMEM27 cells are seeded in 96-well plates. After 2 days in culture, BACE2 inhibitor is added in a range of concentrations as required by the assay and after a further two hours, doxycycline is added to a final concentration of 500 ng/ml. The cells are incubated for a further 46 hours and the supernatant harvested for detection of shed TMEM27.
An ELISA assay (using a pair of mouse anti-human-TMEM27 antibodies, raised against the extracellular domain of TMEM27) is used for detection of TMEM27 in the culture medium. An EC50 for BACE2 inhibition is calculated using the ELISA readout for each inhibitor concentration with standard curve-fitting software such as XLFit for the Excel spreadsheet program.

[2] = tested on: Aβ40; assay: Cellular Aβ-lowering assay; type: cell-based; details: HEK293 cells stably expressing human APP695, Aβ40 in supernatant by ELISA after 18-20 hrs; read-out: Cellular assay Abeta40 IC50
Procedure: Cellular Aβ-Lowering Assay:
Human HEK293 cells which are stably transfected with a vector expressing a cDNA of the human APP wt gene (APP695) were used to assess the potency of the compounds in a cellular assay. The cells were seeded in 96-well microtiter plates in cell culture medium (Iscove, plus 10% (v/v) fetal bovine serum, glutamine, penicillin/streptomycin) to about 80% confluence and the compounds were added at a 10× concentration in 1/10 volume of medium without FCS containing 8% DMSO (final concentration of DMSO was kept at 0.8% v/v). After 18-20 hrs incubation at 37° C. and 5% CO2 in a humidified incubator the culture supernatant was harvested for the determination of Aβ40 concentrations. 96well ELISA plates (e.g., Nunc MaxiSorb) were coated with monoclonal antibody which specifically recognize the C-terminal end of Aβ40 (Brockhaus et al., NeuroReport 9, 1481-1486; 1998). After blocking of non-specific binding sites with e.g. 1% BSA and washing, the culture supernatants were added in suitable dilutions together with a horseradish peroxidase-coupled Aβ detection antibody (e.g., antibody 4G8, Senetek, Maryland Heights, Mo.) and incubated for 5 to 7 hrs. Subsequently the wells of the microtiter plate were washed extensively with Tris-buffered saline containing 0.05% Tween 20 and the assay was developed with tetramethylbenzidine/H2O2 in citric acid buffer. After stopping the reaction with one volume 1 N H2SO4 the reaction was measured in an ELISA reader at 450 nm wavelength. The concentrations of Aβ in the culture supernatants were calculated from a standard curve obtained with known amounts of pure Aβ peptide.

IC50 [1] | IC50 [2] | SMILES
4.4 nM | 4.5 nM | C[C@]1(c2cc(NC(=O)c3ncc(F)cc3F)ccc2F)N=C(N)COCC1(F)F [Example 32, (R)-N-(3-(3-amino-6,6-difluoro-5-methyl-2,5,6,7-tetrahydro-1,4-oxazepin-5-yl)-4-fluorophenyl)-3,5-difluoropicolinamide formate]
240 nM | 90 nM | C[C@]1(c2cc(NC(=O)C3(C(F)(F)F)CC3)ccc2F)N=C(N)COCC1(F)F [Example 33, (R)-N-(3-(3-amino-6,6-difluoro-5-methyl-2,5,6,7-tetrahydro-1,4-oxazepin-5-yl)-4-fluorophenyl)-1-(trifluoromethyl)cyclopropanecarboxamide formate]
380 nM | 76 nM | C[C@]1(c2cc(NC(=O)C3CC3(F)F)ccc2F)N=C(N)COCC1(F)F (stereo partly drawn) [Example 34, N-(3-((R)-3-amino-6,6-difluoro-5-methyl-2,5,6,7-tetrahydro-1,4-oxazepin-5-yl)-4-fluorophenyl)-2,2-difluorocyclopropanecarboxamide formate]
29 nM | 14 nM | C[C@]1(c2cc(NC(=O)c3ccccn3)ccc2F)N=C(N)COCC1(F)F [Example 35, (R)-N-(3-(3-amino-6,6-difluoro-5-methyl-2,5,6,7-tetrahydro-1,4-oxazepin-5-yl)-4-fluorophenyl)picolinamide formate]
8.4 nM | 38 nM | C[C@]1(c2cc(NC(=O)c3ncccc3Cl)ccc2F)N=C(N)COCC1(F)F [Example 36, (R)-N-(3-(3-amino-6,6-difluoro-5-methyl-2,5,6,7-tetrahydro-1,4-oxazepin-5-yl)-4-fluorophenyl)-3-chloropicolinamide formate]
25 nM | 54 nM | C[C@]1(c2cc(NC(=O)c3ncccc3C(F)(F)F)ccc2F)N=C(N)COCC1(F)F [Example 37, (R)-N-(3-(3-amino-6,6-difluoro-5-methyl-2,5,6,7-tetrahydro-1,4-oxazepin-5-yl)-4-fluorophenyl)-3-(trifluoromethyl)picolinamide formate]
170 nM | 55 nM | C[C@]1(c2cc(NC(=O)c3cnc(Cl)cn3)ccc2F)N=C(N)COCC1(F)F [Example 38, (R)-N-(3-(3-amino-6,6-difluoro-5-methyl-2,5,6,7-tetrahydro-1,4-oxazepin-5-yl)-4-fluorophenyl)-5-chloropyrazine-2-carboxamide formate]
3 nM | 2.6 nM | C[C@]1(c2cc(NC(=O)c3ncc(Cl)cc3Cl)ccc2F)N=C(N)COCC1(F)F [Example 39, (R)-N-(3-(3-amino-6,6-difluoro-5-methyl-2,5,6,7-tetrahydro-1,4-oxazepin-5-yl)-4-fluorophenyl)-3,5-dichloropicolinamide formate]
6.2 nM | 5.9 nM | C[C@]1(c2cc(NC(=O)c3ncc(F)cc3Cl)ccc2F)N=C(N)COCC1(F)F [Example 40, (R)-N-(3-(3-amino-6,6-difluoro-5-methyl-2,5,6,7-tetrahydro-1,4-oxazepin-5-yl)-4-fluorophenyl)-3-chloro-5-fluoropicolinamide formate]
3 nM | 7.2 nM | Cn1cc(Cl)c(C(=O)Nc2ccc(F)c([C@@]3(C)N=C(N)COCC3(F)F)c2)n1 [Example 41, (R)-N-(3-(3-amino-6,6-difluoro-5-methyl-2,5,6,7-tetrahydro-1,4-oxazepin-5-yl)-4-fluorophenyl)-4-chloro-1-methyl-1H-pyrazole-3-carboxamide formate]
2.4 nM | 7.4 nM | Cc1nc(C(=O)Nc2ccc(F)c([C@@]3(C)N=C(N)COCC3(F)F)c2)co1 [Example 42, (R)-N-(3-(3-amino-6,6-difluoro-5-methyl-2,5,6,7-tetrahydro-1,4-oxazepin-5-yl)-4-fluorophenyl)-2-methyloxazole-4-carboxamide formate]
4.7 nM | 23 nM | Cn1ccc(C(=O)Nc2ccc(F)c([C@@]3(C)N=C(N)COCC3(F)F)c2)n1 [Example 43, (R)-N-(3-(3-amino-6,6-difluoro-5-methyl-2,5,6,7-tetrahydro-1,4-oxazepin-5-yl)-4-fluorophenyl)-1-methyl-1H-pyrazole-3-carboxamide formate]
1.2 nM | 2.4 nM | C[C@]1(c2cc(NC(=O)c3ccn(C(F)F)n3)ccc2F)N=C(N)COCC1(F)F [Example 44, (R)-N-(3-(3-amino-6,6-difluoro-5-methyl-2,5,6,7-tetrahydro-1,4-oxazepin-5-yl)-4-fluorophenyl)-1-(difluoromethyl)-1H-pyrazole-3-carboxamide formate]
6.5 nM | 1.7 nM | C[C@]1(c2cc(NC(=O)c3ncc(Cl)cn3)ccc2F)N=C(N)COCC1(F)F [Example 46, 5-Chloro-pyrimidine-2-carboxylic acid [3-((R)-3-amino-6,6-difluoro-5-methyl-2,5,6,7-tetrahydro-[1,4]oxazepin-5-yl)-4-fluoro-phenyl]-amide]
46 nM | 58 nM | CC1(C)OCC[C@@](C)(c2cc(NC(=O)c3ccc(Cl)cn3)ccc2F)N=C1N [Example 47, 5-Chloro-pyridine-2-carboxylic acid [3-((S)-3-amino-2,2,5-trimethyl-2,5,6,7-tetrahydro-[1,4]oxazepin-5-yl)-4-fluoro-phenyl]-amide]
88 nM | 1 nM | C[C@]1(c2cc(NC(=O)c3ccc(OC(F)F)cn3)ccc2F)N=C(N)COCC1(F)F [Example 48, (R)-N-(3-(3-amino-6,6-difluoro-5-methyl-2,5,6,7-tetrahydro-1,4-oxazepin-5-yl)-4-fluorophenyl)-5-(difluoromethoxy)picolinamide formate]
1110 nM | 22 nM | C[C@]1(c2cc(NC(=O)c3ccc(OCC(F)(F)F)cn3)ccc2F)N=C(N)COCC1(F)F [Example 49, (R)-N-(3-(3-amino-6,6-difluoro-5-methyl-2,5,6,7-tetrahydro-1,4-oxazepin-5-yl)-4-fluorophenyl)-5-(2,2,2-trifluoroethoxy)picolinamide formate]
71 nM | 160 nM | CC1(C)OCC[C@@](C)(c2cc(NC(=O)c3ccc(F)cn3)ccc2F)N=C1N [Example 50, 5-Fluoro-pyridine-2-carboxylic acid [3-((S)-3-amino-2,2,5-trimethyl-2,5,6,7-tetrahydro-[1,4]oxazepin-5-yl)-4-fluoro-phenyl]-amide]
120 nM | 49 nM | C[C@@]1(c2cc(NC(=O)c3ncc(C(F)(F)F)cc3Cl)ccc2F)COCCC(N)=N1 [Example 52, 3-Chloro-5-trifluoromethyl-pyridine-2-carboxylic acid [3-((R)-5-amino-3-methyl-2,3,6,7-tetrahydro-[1,4]oxazepin-3-yl)-4-fluoro-phenyl]-amide]
41 nM | 10 nM | C[C@@]1(c2cc(NC(=O)c3ccc(C#N)cn3)ccc2F)COCCC(N)=N1 [Example 53, 5-Cyano-pyridine-2-carboxylic acid [3-((R)-5-amino-3-methyl-2,3,6,7-tetrahydro-[1,4]oxazepin-3-yl)-4-fluoro-phenyl]-amide]
